Measurements reported in patent US10308656B2, “Small molecule inhibitors of Ku70/80 and uses thereof” (ARIZONA BOARD OF REGENTS ON BEHALF OF THE UNIVERSITY OF …, priority 2015, dated 2019).
“Also recorded” adds a separate entry of the source.

Legend:
[1] = biological target: DNA-PKCS kinase (Ku-dependent activation) (Homo sapiens, UniProt P12956+P13010); test: DNA-PKCS kinase activity assay, Ku70/80-dependent in vitro phosphorylation of a p53-based peptide substrate; format: biochemical; settings: for Impairment of Ku-dependent activation of DNA-PKCS: in vitro
Chain of DNA-PKCS kinase (Ku-dependent activation) (P12956 whole entry): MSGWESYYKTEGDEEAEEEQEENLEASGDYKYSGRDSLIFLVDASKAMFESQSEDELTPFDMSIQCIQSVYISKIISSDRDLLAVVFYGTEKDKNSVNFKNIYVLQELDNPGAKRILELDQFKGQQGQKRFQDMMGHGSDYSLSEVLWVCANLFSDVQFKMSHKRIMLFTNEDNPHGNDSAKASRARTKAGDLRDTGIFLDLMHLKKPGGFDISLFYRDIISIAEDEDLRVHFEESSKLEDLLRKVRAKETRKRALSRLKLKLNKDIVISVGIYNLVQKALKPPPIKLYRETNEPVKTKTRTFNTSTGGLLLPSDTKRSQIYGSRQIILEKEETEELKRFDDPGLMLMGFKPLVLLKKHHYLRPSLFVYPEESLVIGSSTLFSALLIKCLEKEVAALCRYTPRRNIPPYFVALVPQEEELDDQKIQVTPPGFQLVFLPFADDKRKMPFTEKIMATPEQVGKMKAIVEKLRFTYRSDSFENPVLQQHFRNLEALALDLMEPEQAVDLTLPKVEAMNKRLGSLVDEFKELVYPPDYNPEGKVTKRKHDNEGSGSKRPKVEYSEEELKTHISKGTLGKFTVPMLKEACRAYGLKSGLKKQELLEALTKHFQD
Chain of DNA-PKCS kinase (Ku-dependent activation) (P13010 whole entry): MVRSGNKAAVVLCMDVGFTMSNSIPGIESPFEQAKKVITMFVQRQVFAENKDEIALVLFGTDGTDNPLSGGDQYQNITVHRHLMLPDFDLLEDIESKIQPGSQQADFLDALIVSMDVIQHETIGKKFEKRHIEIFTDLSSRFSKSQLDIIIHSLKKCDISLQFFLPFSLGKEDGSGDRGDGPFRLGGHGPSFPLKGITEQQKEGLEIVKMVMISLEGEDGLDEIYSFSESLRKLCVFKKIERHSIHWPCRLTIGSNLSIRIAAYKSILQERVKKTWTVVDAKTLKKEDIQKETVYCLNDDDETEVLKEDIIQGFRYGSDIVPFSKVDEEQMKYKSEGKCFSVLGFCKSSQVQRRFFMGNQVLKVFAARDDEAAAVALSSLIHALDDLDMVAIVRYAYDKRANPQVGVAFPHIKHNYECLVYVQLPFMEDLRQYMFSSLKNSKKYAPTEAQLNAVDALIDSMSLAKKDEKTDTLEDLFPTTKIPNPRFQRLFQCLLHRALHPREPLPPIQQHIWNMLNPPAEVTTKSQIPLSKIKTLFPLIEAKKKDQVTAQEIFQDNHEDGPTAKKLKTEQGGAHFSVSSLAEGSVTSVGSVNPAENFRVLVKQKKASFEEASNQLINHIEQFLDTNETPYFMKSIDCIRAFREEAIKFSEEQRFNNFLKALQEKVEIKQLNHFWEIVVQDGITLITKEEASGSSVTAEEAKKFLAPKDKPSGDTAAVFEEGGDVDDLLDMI
From the text: To further validate the Ku-inhibitory activity of Compound L, experiments examined its effects on Ku-dependent activation of the DNA-PKCS kinase. […] It is, however, a potent co-factor for the activation of other NHEJ enzymes, including DNA-PKCS (see, G. C. Smith, et al., Genes Dev., 13 (1999), pp. 916-934). It was therefore reasoned that disruption of the Ku-DNA interaction by Compound L should also diminish DNA-PKCS kinase activity. The DNA-PKCS kinase has multiple known downstream targets, including p53, Artemis, and DNA-PKCS itself (see, E. Weterings, et al., Cell Res., 18 (2008), pp. 114-124; G. C. Smith, et al., Genes Dev., 13 (1999), pp. 916-934). It is at present not entirely clear which targets are critical for the overall DNA repair response, but it is evident that the kinase domain of DNA-PKCS is indispensable. Experiments therefore quantified the kinase activity of a purified preparation of the DNA-PKCS protein in the presence of different concentrations of Compound L. Experiments measured the phosphorylation of a p53-based peptide substrate as an arbitrary reporter of DNA-PKCS kinase activity. The obtained in vitro DNA-PKCS kinase activities were subsequently normalized and plotted as a function of compound L concentration (FIG. 4A). Experiments observed a sharp dose-dependent inhibition of DNA-PKCS kinase activity. […] Therefore, both primary (EMSA) and secondary (DNA-PKCS activity) assays for the Ku-inhibitory potential of Compound L indicate an IC50 value in the lower micro-molar range.
This example compares the in vitro activity of several structural analogs of Compound L. This assay measures the effect of each compound on the in vitro activity of the DNA-PKCS kinase.

[2] = biological target: Ku70/80 heterodimer-DNA interaction (Homo sapiens, UniProt P12956+P13010); test: Electrophoretic Mobility Shift Assay (EMSA) of Ku70/80 binding to a DNA substrate; settings: for Disruption of Ku70/80-DNA interaction (disappearance of the band shift): compound at 100 μM in EMSA reaction
Chain of Ku70/80 heterodimer-DNA interaction (P12956 whole entry): as the sequence (P12956 whole entry) above
Chain of Ku70/80 heterodimer-DNA interaction (P13010 whole entry): as the sequence (P13010 whole entry) above
From the text: Next, the described ‘protomol’ was utilized as a guide to screen small molecule databases for potential inhibitors. Hits were sorted from highest to lowest docking scores and nine compounds were ultimately chosen for biological activity screening (see, Table 1). These compounds were commercially obtained and designated with a letter (A through H, and L). For initial activity screening experiments utilized an Electrophoretic Mobility Shift Assay (EMSA), in which a radioactively labeled artificial DNA substrate was incubated with a preparation of purified Ku70/80 protein, followed by non-denaturing gel electrophoresis. Interaction of Ku70/80 with DNA caused a measurable shift of the DNA band. […] Compounds C and L were further investigated for their ability to disrupt the Ku70/80 DNA interaction as well as Ku-dependent activation of the DNA-PKcs kinase.
Therefore, a two orders of magnitude range of serial dilutions of the compounds was added to the previously described EMSA reactions. Inhibition of Ku-DNA interaction in a straight forward dose-dependent manner by compound L alone was observed (FIG. 3B). In order to quantify the relative efficiency of Ku-DNA binding for each dose of Compound L, the intensity of the Ku-DNA bands in the EMSA assay was measured and normalized those values to a number between 0 and 100, where the value 0 represents a reaction where no Ku70/80 was present and the value 100 represents a reaction where no inhibitor was added. These normalized values were subsequently plotted against the corresponding concentrations of Compound L (FIG. 3B). A logarithmic trend line was added and equations were obtained to describe the dose-response curves of Compound L in the EMSA assay. […] IC50 values in this range are generally considered to be a viable starting point for lead-finding exploits.

[3] = tested on: SF-767 glioblastoma cells; test: Radiation sensitization / cytotoxicity by MTS assay in glioblastoma cells; format: cell-based, human; settings: for Sensitization to radiation therapy (RT): human glioblastoma multiforme (GBM) cells
Experimental: (§1) Consequently, this substance could have an effect on the efficiency of overall repair of DSBs. In order to examine this potential, experiments tested Compound L for its ability to potentiate the effects of ionizing radiation on two human cell lines: the glioblastoma cell line SF-767 (FIG. 5A), and an hTERT immortalized prostate epithelial (PrEC) cell line (see, R. Berger, et al., Cancer Res., 64 (2004), pp. 8867-8875) (FIG. 5B). Cultured cells were treated with either the compound as a single modality, ionizing radiation as a single modality or with a regimen of concurrent radiation and compound. Cell viability was measured after a six day recovery period by standard MTS assay and normalized to the untreated control (no compound or radiation). FIG. 5 presents the observed effects of each treatment modality in terms of percentage non-viable cells. The effects are plotted as a function of the compound's concentration in the culture medium.
(§2) As expected, experiments observed a clear, dose-dependent increase in non-viable cell population with increasing concentrations of Compound L (FIG. 5, red columns). This reflects the fundamental cytotoxicity of the compound under the chosen experimental conditions. In both cell lines, toxicity of Compound L stayed low (below 5% non-viability) up to 25 μM, after which an exponential increase in cytotoxicity was observed. […] In order to exclude the possibility that this phenomenon was caused by mere additive effects, experiments calculated the sum of the effects of the single modalities (FIG. 5, purple columns) and compared the obtained values with the effects of the combination treatments. By definition, synergism is present when the effect of the combination therapy (green columns) exceeds the sum of the effects of the single modalities (purple columns). In SF-767 cells, synergism was most clearly observed between 20 and 30 μM (FIG. 5A) and in immortalized PrEC cells synergism was present in the 20-35 μM range (FIG. 5B).
(§3) This is done by means of a standard MTS assay, measuring survival of human glioblastoma (SF767) or immortalized prostate epithelial (PrEC) cells 7 days after treatment with compounds and radiation therapy. […] The radiation-sensitizing potential of Compound L and JV761 is attributable to the ability of these compounds to suppress the activity of Ku70/80 in vivo.

[4] = Tolerability and toxicity after bolus IP injection with two week follow-up; format: in vivo; settings: mice
[5] = Pharmacokinetic profile after bolus IP injection, plasma levels by LC-MS; format: in vivo, nude mice; settings: bolus IP 1, 3 or 5 mg/kg
Experimental: A bolus IP injection of Compound L was given at either 1, 3, or 5 mg/kg and plasma levels of Compound L were determined by LC-MS.

[6] = Radiation sensitization / cytotoxicity by MTS assay in prostate epithelial cells; format: cell-based, human; settings: human, hTERT immortalized prostate epithelial (PrEC) cells; PrEC, up to 25 μM, MTS after six day recovery; read-out: Non-viability (toxicity of compound as single modality)
Experimental: as §1
(§4) As expected, experiments observed a clear, dose-dependent increase in non-viable cell population with increasing concentrations of Compound L (FIG. 5, red columns). […] In order to exclude the possibility that this phenomenon was caused by mere additive effects, experiments calculated the sum of the effects of the single modalities (FIG. 5, purple columns) and compared the obtained values with the effects of the combination treatments. […]

[7] = tested on: hTERT immortalized prostate epithelial (PrEC) cells; test: as above; format: cell-based, human; settings: immortalized PrEC, concurrent compound and radiation, FIG. 5B
Experimental: as §1, §4

[8] = Radiation sensitization / cytotoxicity by MTS assay in glioblastoma cells; format: cell-based, human; settings: human, SF-767 glioblastoma cells; SF-767, up to 25 μM, MTS after six day recovery; read-out: Non-viability (toxicity of compound as single modality)
Experimental: as §1, §2, §3

[9] = tested on: DNA-PKCS SER2056 autophosphorylation in SF-767 cells; test: DNA-PKCS autophosphorylation assay (Western blot) after etoposide-induced DSBs; format: cell-based, human
From the text: In order to further examine the effects of Compound L on Ku-dependent activation of the DNA-PKCS kinase in vivo, experiments also exposed cultures of the human glioblastoma cell line SF-767 to increasing concentrations of Compound L. Upon induction of DSBs by etoposide, experiments quantified the levels of DNA-PKCS autophosphorylation at the SER2056 residue by means of Western blot analysis (FIG. 4B).

[10] = tested on: DNA double strand break (DSB) repair in glioblastoma cells (SF767); test: DSB repair after radiation by γ-H2AX phosphorylation; format: cell-based, human; settings: 25 μM, post radiation
Experimental: This repair process is dependent on active Ku70/80 and the suppression of Ku-dependent DSB repair is further proof that Compound L inhibits Ku70/80 activity. The relative amount of DSBs is measured by counting the relative intensity of a canonical DSB marker: γ-H2AX.
Relative number of DSBs was measured by quantifying and normalizing γ-H2AX phosphorylation. […] Measured in human glioblastoma cells (SF767). Error bars represent standard error.

Row | Compound | Impairment of Ku-dependent activation of DNA-PKCS [1] | Disruption of Ku70/80-DNA interaction (disappearance of the band shift) [2] | Sensitization to radiation therapy (RT) [3] | Histopathology and comprehensive blood panels ([4]; after two weeks) | Signs of toxicity ([4]; bolus IP, acute and two week follow-up) | Tolerability ([4]; single bolus IP injection up to 5 mg/kg) | IC50 ([1]; p53-based peptide substrate, logarithmic trend line) [nM] | Plasma levels versus dose ([5]; LC-MS) | half-life ([5]; mouse, plasma, nude mice) [min] | cytotoxicity at 6 days [6] [%] | Concentration range of synergism with radiation [7] [µM] | IC50 ([2]; EMSA titration, logarithmic trend line, read-out: IC50, dose needed to inhibit 50% of maximal Ku-DNA binding) [µM] | cytotoxicity at 6 days [8] [%] | Concentration range of synergistic radiation-sensitization ([3]; human cancer cells, 4Gy radiation, MTS 7 days after treatment, FIG. 9) [µM] | Total DNA-PKCS level ([9]; Western blot) | DNA-PKCS autophosphorylation at the SER2056 residue ([9]; increasing doses, etoposide) | DSB repair kinetics (γ-H2AX) [10]
1 | COc1ccc(N2CCN(Cc3nc(N)nc(Nc4cccc(C)c4)n3)CC2)cc1 [Compound C, 4-[[4-(4-methoxyphenyl)piperazin-1-yl]methyl]-6-(m-tolyimino)-5H-1,3,5-triazin-2-amine] | capable of disrupting the binding of Ku to DNA as well as the activation of DNA-PKCS | disruption of the Ku70/80-DNA interaction; also recorded: screen positive for disruption of Ku70/80-DNA interaction; also recorded: capable of disrupting the binding of Ku to DNA | synergistically sensitize |  |  |  |  |  |  |  |  |  |  |  |  |  | 
2 | COc1ccc(CCNc2ncc3c(=O)n(-c4cccc(F)c4)c(=O)[nH]c3n2)cc1OC [Compound L, 7-[[2-(3,4-dimethoxyphenyl)ethyl]amino]-3-(3-fluorophenyl)pyrimido[4,5-d] pyrimidine-2,4(1H,3H)-dione] | capable of disrupting the binding of Ku to DNA as well as the activation of DNA-PKCS | disruption of the Ku70/80-DNA interaction; also recorded: screen positive for disruption of Ku70/80-DNA interaction; also recorded: capable of disrupting the binding of Ku to DNA | synergistically sensitize | no abnormalities; also recorded: normal | did not reveal any acute toxicity; also recorded: did not reveal signs of toxicity | well tolerated | 2500 | directly proportional to dose | ~90 | < 5 | 20 to 35 | 3.5 | < 5 | 20 to 30 | not suppressed | sharp decline | significantly delayed
